Source: ChEMBL document CHEMBL1201862, “PubChem BioAssay data set” (2004)
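Results reflect a 48-hour exposure of cells in 96-well plates to compound at five concentrations. GI50: concentration for 50% inhibition of growth.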 Active and inactive are the calls of the source. Rule as the data show it: active = GI50 up to about 1.1 µM and inactive = higher.

What was measured:
Assay in all cases: DTP human tumour cell line panel, 48 h
HL-60 = system: HL-60
HOP-18 = system: HOP-18
RPMI-8226 = system: RPMI-8226
DLD-1 = system: DLD-1
CCRF-CEM = system: CCRF-CEM
KM-20L2 = system: KM-20L2
HT-29 = system: HT-29
LXFL 529 = system: LXFL 529
M19-MEL = system: M19-MEL
M14 = system: M14
A498 = system: A498
NCI-H23 = system: NCI-H23
XF498 = system: XF498
UACC-62 = system: UACC-62
DMS-273 = system: DMS-273
UACC-257 = system: UACC-257
SF-295 = system: SF-295
U-251 = system: U-251
SN12C = system: SN12C
HCT-116 = system: HCT-116
NCI-H226 = system: NCI-H226
HCC 2998 = system: HCC 2998
NCI-H460 = system: NCI-H460
SNB-75 = system: SNB-75
SNB-78 = system: SNB-78
SK-MEL-28 = system: SK-MEL-28
SF-539 = system: SF-539
HOP-62 = system: HOP-62
IGROV-1 = system: IGROV-1
TK-10 = system: TK-10
SF-268 = system: SF-268
COLO 205 = system: COLO 205
OVCAR-3 = system: OVCAR-3
SK-OV-3 = system: SK-OV-3
OVCAR-8 = system: OVCAR-8
EKVX = system: EKVX
NCI-H522 = system: NCI-H522
Malme-3M = system: Malme-3M
OVCAR-4 = system: OVCAR-4
A549 = system: A549
K562 = system: K562
HOP-92 = system: HOP-92
UO-31 = system: UO-31
KM12 = system: KM12
SK-MEL-5 = system: SK-MEL-5
SNB-19 = system: SNB-19
LOX IMVI = system: LOX IMVI
OVCAR-5 = system: OVCAR-5
786-0 = system: 786-0
RXF 393 = system: RXF 393
ACHN = system: ACHN
SW-620 = system: SW-620
CAKI-1 = system: CAKI-1
DMS-114 = system: DMS-114

`CC[C@@]1(O)C[C@H](OC2CC(N(C)C)C(OC3CC(O)C(OC4CCC(=O)C(C)O4)C(C)O3)C(C)O2)c2c(cc3c(c2O)C(=O)c2c(O)cccc2C3=O)[C@H]1C(=O)OC` (stereo partly specified) was tested, and the GI50 (HL-60) was 0.0317 µM (active), the GI50 (HOP-18) was 0.0736 µM (active) and the GI50 (RPMI-8226) was 0.0278 µM (active). The GI50 (DLD-1) was 0.0327 µM (active), the GI50 (CCRF-CEM) was 0.0184 µM (active) and the GI50 (KM-20L2) was 0.0128 µM (active). The GI50 (HT-29) was 0.0147 µM (active) and the GI50 (LXFL 529) was 0.00904 µM (active).

In the case of `CCOC(=O)C1N(S(=O)(=O)c2ccc(C)cc2)CCC12c1ccccc1N(C(C)=O)C2c1ccc(OC)c(OC)c1` (stereo unspecified), the GI50 (M19-MEL) is reported as > 100 µM (inactive), the GI50 (M14) is reported as > 100 µM (inactive) and the GI50 (A498) is reported as > 100 µM (inactive). For the same compound, the GI50 (NCI-H23) was > 100 µM (inactive), the GI50 (XF498) was 21.7 µM (inactive) and the GI50 (UACC-62) was > 100 µM (inactive). For the same compound, the GI50 (DMS-273) was > 100 µM (inactive), the GI50 (HL-60) was 48.1 µM (inactive) and the GI50 (UACC-257) was > 100 µM (inactive). For the same compound, the GI50 (SF-295) was > 100 µM (inactive), the GI50 (U-251) was > 100 µM (inactive) and the GI50 (SN12C) was > 100 µM (inactive). For the same compound, the GI50 (HCT-116) was 47.4 µM (inactive), the GI50 (NCI-H226) was 19.9 µM (inactive) and the GI50 (HCC 2998) was > 100 µM (inactive). For the same compound, the GI50 (NCI-H460) was > 100 µM (inactive), the GI50 (RPMI-8226) was 65.5 µM (inactive) and the GI50 (DLD-1) was 78.2 µM (inactive). For the same compound, the GI50 (SNB-75) was 74 µM (inactive), the GI50 (SNB-78) was > 100 µM (inactive) and the GI50 (CCRF-CEM) was > 100 µM (inactive). For the same compound, the GI50 (SK-MEL-28) was > 100 µM (inactive), the GI50 (SF-539) was > 100 µM (inactive) and the GI50 (HOP-62) was > 100 µM (inactive). For the same compound, the GI50 (KM-20L2) was > 100 µM (inactive), the GI50 (IGROV-1) was > 100 µM (inactive) and the GI50 (HT-29) was > 100 µM (inactive). The GI50 (TK-10) was > 100 µM (inactive), the GI50 (SF-268) was > 100 µM (inactive) and the GI50 (COLO 205) was > 100 µM (inactive). For the same compound, the GI50 (OVCAR-3) was > 100 µM (inactive), the GI50 (SK-OV-3) was > 100 µM (inactive) and the GI50 (OVCAR-8) was > 100 µM (inactive). For the same compound, the GI50 (EKVX) was > 100 µM (inactive), the GI50 (NCI-H522) was > 100 µM (inactive) and the GI50 (Malme-3M) was > 100 µM (inactive). For the same compound, the GI50 (OVCAR-4) was 71.1 µM (inactive), the GI50 (A549) was > 100 µM (inactive) and the GI50 (K562) was 80.7 µM (inactive). For the same compound, the GI50 (HOP-92) was 47.8 µM (inactive), the GI50 (UO-31) was 42.7 µM (inactive) and the GI50 (KM12) was > 100 µM (inactive). The GI50 (SK-MEL-5) was > 100 µM (inactive), the GI50 (SNB-19) was > 100 µM (inactive) and the GI50 (LOX IMVI) was > 100 µM (inactive). For the same compound, the GI50 (OVCAR-5) was > 100 µM (inactive), the GI50 (786-0) was > 100 µM (inactive) and the GI50 (RXF 393) was > 100 µM (inactive). The GI50 (ACHN) was > 100 µM (inactive), the GI50 (SW-620) was > 100 µM (inactive) and the GI50 (LXFL 529) was > 100 µM (inactive). For the same compound, the GI50 (CAKI-1) was 76.7 µM (inactive) and the GI50 (DMS-114) was > 100 µM (inactive).
